Experimental data taken from ChEMBL document CHEMBL1158295, “Five new monotetrahydrofuran ring acetogenins from the leaves of Annona muricata” (J Nat Prod, 1996).
In brackets after ≈: the same amount, converted by molar mass.

Experiments:
Artemia = assay: Toxicity to brine shrimp; assay type: organism-based; details: in vivo
A549 = assay: Cytotoxicity against human A549 cells; assay type: functional; details: read-out: ED50 (the source's name)
MCF7 = assay: Cytotoxicity against human MCF7 cells; assay type: functional; details: read-out: ED50 (the source's name)
HT-29 = assay: Cytotoxicity against human HT29 cells; assay type: functional; details: read-out: ED50 (the source's name)
A498 = assay: Cytotoxicity against human A498 cells; assay type: functional; details: read-out: ED50 (the source's name)
PC-3 = assay: Cytotoxicity against human PC3 cells; assay type: functional; details: read-out: ED50 (the source's name)
MIA PaCa-2 = assay: Cytotoxicity against human MIAPaCa2 cells; assay type: functional; details: read-out: ED50 (the source's name)

Row | Structure (SMILES) | LC50 (Artemia) | EC50 (A549) [µg/mL] | EC50 (MCF7) [µg/mL] | EC50 (HT-29) [µg/mL] | EC50 (A498) [µg/mL] | EC50 (PC-3) [µg/mL] | EC50 (MIA PaCa-2) [µg/mL]
1 | CCCCCCCCCCCC[C@@H](O)[C@H](O)CC[C@H](O)[C@@H]1CC[C@@H](C[C@H](O)CCCCC[C@@H](O)CC2=C[C@H](C)OC2=O)O1 [ANNOPENTOCIN A] | 8.9 ppm | 0.171 (≈ 0.279 µM) | 17.9 (≈ 29.3 µM) | 1.63 (≈ 2.66 µM) | 0.607 (≈ 0.99 µM) | 1.14 (≈ 1.86 µM) | 0.0358 (≈ 0.0584 µM)
2 | CCCCCCCCCCCC[C@H](O)[C@H](O)CC[C@H](O)[C@@H]1CC[C@@H](C[C@H](O)CCCCC[C@@H](O)CC2=C[C@H](C)OC2=O)O1 [ANNOPENTOCIN C] | 13.8 ppm | 0.0206 (≈ 0.0336 µM) | 2.97 (≈ 4.85 µM) | 1.24 (≈ 2.02 µM) | 0.258 (≈ 0.421 µM) | 0.228 (≈ 0.372 µM) | 0.428 (≈ 0.698 µM)
3 | COc1cccc2c1C(=O)c1c(O)c3c(c(O)c1C2=O)C[C@@](O)(C(=O)CO)C[C@@H]3O[C@H]1C[C@H](N)[C@H](O)[C@H](C)O1 [DOXORUBICIN] | 2.57 ×10⁻¹ ppm | 0.00428 (≈ 0.00787 µM) | 0.495 (≈ 0.911 µM) | 0.0498 (≈ 0.0916 µM) | 0.0462 (≈ 0.085 µM) | 0.0583 (≈ 0.107 µM) | 0.00423 (≈ 0.00778 µM)
4 | CCCCCCCCCCCC[C@H](O)[C@@H](O)CC[C@H](O)[C@@H]1CC[C@@H](C[C@H](O)CCCCC[C@@H](O)CC2=C[C@H](C)OC2=O)O1 [ANNOPENTOCIN B] | 11.2 ppm | 0.0274 (≈ 0.0447 µM) | 3.56 (≈ 5.81 µM) | 1.64 (≈ 2.68 µM) | 0.379 (≈ 0.618 µM) | 0.212 (≈ 0.346 µM) | 0.162 (≈ 0.264 µM)
